In patent publication US8623593B1, “GPR 17 agonists and screening assay” (Rheinische Friedrich-Wilhelms-Universität Bonn, priority 2011, dated 2014):
Read-outs that look alike come from different tables or passages of the source.

Legend:
[1] = test system: CHO-K1 cells; assay: calcium mobilization assay, unspecific effects on native CHO-K1 cells; format: cell-based, Chinese hamster; conditions: normalised to response of 100 μM ATP
Excerpt: (§1) In order to detect the released calcium, cells are loaded with a cell membrane permeable dye, which is converted within the cell into its active form by the cleavage of ester bonds. The active form of the dye binds the released calcium. The fluorescence properties of the dye change after calcium binds to the dye. These changes can be detected automatically and represent the ligand-dependent receptor activation. Cells from two confluently grown (80 to 90%) 175 cm^2 cell culture flasks were needed for a calcium assay using the NOVOstar microplate reader (approximately 150,000 cells per well). Cells were harvested after removing the medium, washed once with PBS buffer and detached using a trypsin/EDTA solution. After incubation for 45 min at 37° C. and 5% CO2, the cells were pelleted by centrifugation (5 min, 200 g). […] The cells were washed twice with 1 ml of KHB buffer (three centrifugation steps, each for 15 sec at 2700 rpm) before being seeded in a 96-well microplate in a total volume of 180 μl. A 10-fold concentrated agonist solution (35 μl) was added to another 96-well microplate with a V-profile. Both plates were placed into the NOVOstar microplate reader and incubated there for 20 min. After incubation, the required gain was determined by the microplate so that the fluorescence background of the cells was between 38,000 and 42,000 fluorescence units. This background is an optimal range for starting the measurement, because it is in the middle of the reader's detection range. Normally, the background in each well of a microplate should be the same. The background was determined by performing a so-called validation. A validation is performed to detect irregularities in cell densities between different wells, fluorescence or absorption properties as well as unspecific antagonist effects. […] Afterwards, 20 μl of agonist were injected from the source plate to the measurement plate by the injector unit of the NOVOstar, and the increase in fluorescence was determined as a function of the calcium efflux resulting from receptor stimulation.

[2] = molecular target: T1, human GPR17 (hGPR17) (Homo sapiens, UniProt Q13304); assay: calcium mobilization assay in CHO-GPR17 cells; format: cell-based; design: expressed in transfected cells; conditions: for % of response of compound (± SEM) CHO-GPR17 cells: normalised to response of 0.3 μM RA-II-150; for pEC50 (± SEM) CHO-GPR17: calcium mobilization, CHO-GPR17 cells
T1 sequence (Q13304 29-367): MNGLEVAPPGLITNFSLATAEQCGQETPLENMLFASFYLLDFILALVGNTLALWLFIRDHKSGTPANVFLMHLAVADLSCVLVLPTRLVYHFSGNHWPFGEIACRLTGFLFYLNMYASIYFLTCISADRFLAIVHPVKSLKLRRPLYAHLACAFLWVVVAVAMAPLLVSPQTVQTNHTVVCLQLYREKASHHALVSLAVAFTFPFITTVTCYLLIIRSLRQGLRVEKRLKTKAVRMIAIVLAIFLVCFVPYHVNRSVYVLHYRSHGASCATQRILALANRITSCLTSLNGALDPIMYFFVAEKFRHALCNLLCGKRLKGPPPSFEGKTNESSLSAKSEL
Excerpt: In order to investigate potential differences in receptor signalling as a function of the cellular background, GPR17 was additionally expressed and analysed in a further cell system. Therefore, a recombinant Chinese hamster ovary (CHO) cell line stably expressing GPR17 was generated using the Flp-In™ T-Rex™ expression system. Here, expression of GPR17 was induced after adding doxycycline.
as §1

[3] = test system: Native 1321N1 cells; assay: calcium mobilization assay, unspecific effects on native 1321N1 cells; format: cell-based, human; conditions: normalised to response of 100 μM carbachol
Excerpt: as §1

[4] = molecular target: T1, human GPR17 (hGPR17); assay: calcium mobilization assay in 1321N1-GPR17 cells; format: cell-based; design: expressed in transfected cells; host or cells: 1321N1 human astrocytoma cells, retroviral transfection with pLXSN-GPR17, G418 selection
Experimental: The sequence for the human GPR17 (short isoform) was subcloned into the vector pLXSN (Clontech Laboratories, CA 94043, USA), which can be used for retroviral transfection of the human astrocytoma cell line 1321N1. […] For the retroviral transfection of 1321N1 astrocytoma cells the packaging cell line GP+envAM12 was cultivated in HXM medium (50 ml of foetal calf serum (FCS), 5 ml of penicillin G/streptomycin solution (final concentration 100 U/ml penicillin, 100 μg/ml streptomycin), 1% ultra glutamine, 0.75 ml of hypoxanthine (10 mg/ml), 12.5 ml of xanthine (10 mg/ml), 1.25 ml of mycophenolic acid (10 mg/ml) and 2 ml of hygromycin B (50 mg/ml) were added to 500 ml DMEM). One day before transfection 1.5×10^6 cells were seeded and incubated overnight at 37° C., 5% CO2 and 95% humidity in a 25 cm^2 cell culture flask containing medium without antibiotics. For at least two hours before transfection the medium was exchanged for 6.25 ml DMEM medium without any additive. Two solutions were prepared for the transfection. The first solution consisted of 25 μl of Lipofectamine™ 2000 (final concentration 2%) and 600 μl of DMEM medium without any additives while the second solution was composed of 6.25 μg of pLXSN-GPR17 and 3.75 μg of pLXSN-VSV-G vector DNA. The second solution was filled up with DMEM medium without any additives. Solution one was incubated for 5 min at room temperature before both solutions were combined and incubated for 20 min, also at room temperature. Afterwards the sample was added to the packaging cell line and incubated for 12-15 h. The medium was then replaced with 3 ml of fresh medium containing 30 μl of a 500 mM sodium butyrate solution. The virus production was stimulated by sodium butyrate and took place by incubation for 48 h at 32° C. and 95% humidity. One day before infection 500,000 of 1321N1 astrocytoma cells were seeded in a 25 cm^2 cell culture flask. After 48 h of virus production, the retroviruses were harvested and sterilised by filtration through a filter with a pore size of […]. The host cell medium was replaced with the sterilized virus supernatant containing 6 μl of polybrene solution (4 mg/ml) and the infection of the host cells took place for further 48 h of incubation at 37° C., 95% humidity and 5% CO2. After incubation, the transfected cells were transferred to a 175 cm^2 cell culture flask and selected by adding medium containing G418. The efficiency of infection and stable transfection using this method was up to 95%.
PLC activation and IP3 accumulation result in a release of calcium from intracellular calcium stores, for example the endoplasmic reticulum. In order to detect the released calcium, cells are loaded with a cell membrane permeable dye, which is converted within the cell into its active form by the cleavage of ester bonds. The active form of the dye binds the released calcium. The fluorescence properties of the dye change after calcium binds to the dye. These changes can be detected automatically and represent the ligand-dependent receptor activation. Cells from two confluently grown (80 to 90%) 175 cm^2 cell culture flasks were needed for a calcium assay using the NOVOstar microplate reader (approximately 150,000 cells per well). Cells were harvested after removing the medium, washed once with PBS buffer and detached using a trypsin/EDTA solution. After incubation for 45 min at 37° C. and 5% CO2, the cells were pelleted by centrifugation (5 min, 200 g). Cells were resuspended in 994 μl of Krebs HEPES buffer (KHB; 118.6 mM NaCl, 4.7 mM KCl, 1.2 mM KH2PO4, 4.2 mM NaHCO3, 11.7 mM D-glucose, 10 mM HEPES (free acid), 1.3 mM MgSO4 and 1.2 mM CaCl2, pH 7.4) and loaded in the absence of light with fluorescent, namely Oregon Green 488 BAPTA-1/AM dye, by incubating them for one hour at 28° C. and 700 rpm in an Eppendorf Thermomixer in the presence of Pluronic F-127. Pluronic F-127 was supplemented so that the cells could better absorb the dye. […]

[5] = solubility in solvents; format: physicochemical
[6] = 30 μM compound, normalised to response of 30 μM RA-II-150
[7] = calcium mobilization, 1321N1-GPR17 cells

SMILES	% response of 30 μM compound (± SEM) Native 1321N1 cells [3]	% of response of 30 μM compound (± SEM) 1321N1-GPR17 [4, 6]	pEC50 (± SEM) CHO-GPR17 [2]	pEC50 (± SEM) 1321N1-GPR17 [4, 7]	other results
O=C(O)CCc1c(C(=O)O)n(CCC(=O)O)c2cc(Cl)cc(Cl)c12	1 (1)/1 (1) (1 μM compound) %	80 (6) %			% response of compound (± SEM) CHO-K1 cells ([1]; 1 μM compound): 1 (1)/1 (1) (1 μM compound) %; % of response of compound (± SEM) CHO-GPR17 cells ([2]; 1 μM compound): 85 (5) %
O=C(O)CCc1c(C(=O)O)[nH]c2cc(Br)cc(Br)c12 [3-(2-Carboxyethyl)-4,6-dibromo-1H-indole-2-carboxylic acid]	0 (1) %		7.87 (0.16)	6.71 (0.01)	solubility in methanol, ethanol and ethyl acetate ([5]; methanol, ethanol, ethyl acetate): well soluble; solubility in petrol ether, water, hexane ([5]; petrol ether, water, hexane): slightly soluble; % response of compound (± SEM) CHO-K1 cells ([1]; 0.3 μM compound): 0 (0) %; % of response of compound (± SEM) CHO-GPR17 cells ([2]; 0.3 μM compound): 89 (2) %; % of response of compound (± SEM) 1321N1-GPR17 ([4]; 10 μM compound, normalised to response of 30 μM RA-II-150): 106 (1) %
O=C(O)CCc1c(C(=O)O)[nH]c2cc(F)cc(F)c12 [3-(2-Carboxyethyl)-4,6-difluoro-1H-indole-2-carboxylic acid]	2 (1) %	77 (2) %	6.79 (0.10)	5.13 (0.13)	% response of compound (± SEM) CHO-K1 cells ([1]; 3 μM compound): 1 (2) %; % of response of compound (± SEM) CHO-GPR17 cells ([2]; 3 μM compound): 97 (5) %
O=C(O)CCc1c(C(=O)O)[nH]c2cc(I)cc(I)c12 [3-(2-Carboxyethyl)-4,6-diiodo-1H-indole-2-carboxylic acid]				5.32	
Cc1cc(C)c2c(CCC(=O)O)c(C(=O)O)[nH]c2c1 [3-(2-Carboxyethyl)-4,6-dimethyl-1H-indole-2-carboxylic acid]	1 (1)/1 (1) (1 μM compound) %	76 (6) %	6.47 (0.05)	4.86 (0.10)	% response of compound (± SEM) CHO-K1 cells ([1]; 1 μM compound): 1 (1)/1 (1) (1 μM compound) %; % of response of compound (± SEM) CHO-GPR17 cells ([2]; 1 μM compound): 68 (2) %
O=C(O)CCc1c(C(=O)O)[nH]c2cc(-c3ccccc3)cc(-c3ccccc3)c12 [3-(2-Carboxyethyl)-4,6-diphenyl-1H-indole-2-carboxylic acid]				5.52	
O=C(O)CCc1c(C(=O)O)[nH]c2cc(Br)ccc12 [3-(2-Carboxyethyl)-6-bromo-1H-indole-2-carboxylic acid]				5.50	
O=C(O)CCc1c(C(=O)O)[nH]c2cc(Cl)ccc12 [3-(2-Carboxyethyl)-6-chloro-1H-indole-2-carboxylic acid]	4 (3) %	84 (6) %	7.69 (0.10)	5.43 (0.14)	% response of compound (± SEM) CHO-K1 cells ([1]; 0.3 μM compound): 1 (2) %; % of response of compound (± SEM) CHO-GPR17 cells ([2]; 1 μM compound): 94 (7) %
O=C(O)CCc1c(C(=O)O)[nH]c2cc(I)ccc12 [3-(2-Carboxyethyl)-6-iodo-1H-indole-2-carboxylic acid]				6.15	
O=C(O)CCc1c(C(=O)O)[nH]c2cc(-c3ccccc3)ccc12 [3-(2-Carboxyethyl)-6-phenyl-1H-indole-2-carboxylic acid]				6.14	
O=C(O)CCc1c(C(=O)O)[nH]c2cc(Cl)cc(Cl)c12 [RA-II-150, 3-(2-carboxyethyl)-4,6-dichloro-1H-indole-2-carboxylic acid]	0 (3) %		6.09 (0.06)/ 8.20 (0.08)		% response of compound (± SEM) CHO-K1 cells ([1]; 0.1 μM compound): 0 (1) %; % of response of compound (± SEM) CHO-GPR17 cells ([2]; 0.3 μM compound): 100 (0)/100 (0) (0.3 μM compound) %; % of response of 30 μM compound (± SEM) 1321N1-GPR17 [4]: 100 (0)/100 (0) (0.3 μM compound) %; pEC50 (± SEM) 1321N1-GPR17 [4]: 6.09 (0.06)/ 8.20 (0.08)
